Assay results reported in BindingDB's records for doi:10.1016/j.bmcl.2018.05.060 (Universidad De Granada, 2018).
pIC50: −log10 of the molar value.

Target: Choline kinase alpha (Homo sapiens, UniProt P35790)
Experiment: Inhibition of human choline kinase alpha1 using [methyl-14C]choline as substrate assessed as reduction in rate of incorporation of 14C from [methyl-14C]choline into phosphocholine preincubated for 5 mins followed by substrate addition measured after 10 mins by scintillation counting

Choline kinase alpha, sequence (P35790 whole entry): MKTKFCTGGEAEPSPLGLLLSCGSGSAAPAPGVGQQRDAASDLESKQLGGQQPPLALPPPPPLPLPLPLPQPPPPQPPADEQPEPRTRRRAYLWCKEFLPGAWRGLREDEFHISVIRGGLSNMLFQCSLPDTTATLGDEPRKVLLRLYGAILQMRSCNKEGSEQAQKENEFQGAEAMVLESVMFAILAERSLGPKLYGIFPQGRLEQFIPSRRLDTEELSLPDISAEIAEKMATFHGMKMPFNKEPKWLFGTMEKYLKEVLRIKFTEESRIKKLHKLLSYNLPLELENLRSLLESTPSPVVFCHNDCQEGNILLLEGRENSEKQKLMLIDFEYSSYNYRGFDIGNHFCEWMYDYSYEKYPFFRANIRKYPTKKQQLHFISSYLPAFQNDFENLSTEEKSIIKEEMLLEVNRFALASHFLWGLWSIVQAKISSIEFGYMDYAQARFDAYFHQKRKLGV

pIC50: 5.16
SMILES: CN(c1ccccc1)c1cc[n+](Cc2ccc(OCCOc3ccc(C[n+]4ccc(N(C)c5ccccc5)c5ccccc54)cc3)cc2)c2ccccc12
